System: microorganism having nitrile hydratase activity
Assay: Growth inhibition caused by cobalt ions in cultivating a microorganism
Type: cell-based
Details: sugar present in culture solution as carbon source
From the text: The present inventors have conducted intensive studies on culture conditions to industrially obtain microbial cells having nitrile hydratase activity within a short period and at a high yield. […] Thus, the present invention has been accomplished.
As a result, it is possible to obtain microbial cells having nitrile hydratase enzyme activity within a short period and at a high yield

SMILES	growth inhibition caused by cobalt ions
O=C(CO)[C@@H](O)[C@H](O)[C@H](O)CO [fructose]	can reduce growth inhibition caused by cobalt ions
OC[C@@H](O)[C@@H](O)[C@H](O)[C@H](O)CO [mannitol]	can reduce growth inhibition caused by cobalt ions

— patent US20030068789A1, “Method for cultivating microorganism” (priority 2000, published 2003)
